Measured values from ChEMBL document CHEMBL4421730, “Synthetic compounds and derivatives as modulators of smoking or nicotine ingestion and lung cancer” (2013).
Activity calls are given as the source filed them. The rule behind the calls is not given here.

Experiments:
Rattus norvegicus [1] = assay: Reduction of nicotine self-administration in nicotine-addicted Wistar rat at 16 mg/kg dosed on day 50 following self-administration of nicotine across 23 hrs period each day for 49 days and measured on day 51 and 52 relative to control; assay type: ADME, organism-based; conditions: in vivo
[2] = biological target: Acetylcholine-binding protein (Lymnaea stagnalis) (UniProt P58154); assay: Binding affinity to Lymnaea stagnalis nicotinic acetylcholine receptor by fluorescence based assay; assay type: single protein
Cytochrome P450 2A6 [3] = biological target: T1, Cytochrome P450 2A6 (Homo sapiens, UniProt P11509); assay: Binding affinity to synthetic N-terminal truncated CYP2A6 (unknown origin) assessed as occurrence of type-1 binding by spectral interaction analysis
T1 sequence (P11509 whole entry): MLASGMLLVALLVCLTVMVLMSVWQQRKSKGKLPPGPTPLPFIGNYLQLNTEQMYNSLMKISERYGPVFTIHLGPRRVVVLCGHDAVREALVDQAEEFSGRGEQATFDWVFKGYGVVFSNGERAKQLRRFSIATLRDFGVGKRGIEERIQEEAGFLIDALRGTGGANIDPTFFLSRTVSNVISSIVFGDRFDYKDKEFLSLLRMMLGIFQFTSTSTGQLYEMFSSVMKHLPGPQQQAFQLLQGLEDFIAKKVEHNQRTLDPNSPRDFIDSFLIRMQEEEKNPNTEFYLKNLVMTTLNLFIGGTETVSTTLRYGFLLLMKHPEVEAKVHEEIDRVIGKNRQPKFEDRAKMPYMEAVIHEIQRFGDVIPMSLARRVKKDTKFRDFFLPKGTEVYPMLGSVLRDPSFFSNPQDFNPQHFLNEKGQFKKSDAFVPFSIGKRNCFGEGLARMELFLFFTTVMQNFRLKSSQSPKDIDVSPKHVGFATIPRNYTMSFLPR

CYP2A6 [4] = biological target: T2, CYP2A6 (Homo sapiens, UniProt P11509); assay: (§1) Binding affinity to synthetic N-terminal truncated CYP2A6 (unknown origin) assessed as effect on type-1 spectral shift lambda(min) by measuring displacement of coumarin at 100 uM preincubated with […] coumarin by spectral interaction analysis; conditions: synthetic N-terminal truncated CYP2A6, probe coumarin, […]
T2 sequence (P11509 whole entry): T1 sequence (P11509 whole entry)

CYP2A6 [5] = biological target: T2, CYP2A6; assay: (§2) Binding affinity to synthetic N-terminal truncated CYP2A6 (unknown origin) assessed as effect on type-1 spectral shift lambda(max) by measuring displacement of coumarin at 100 uM preincubated with […] coumarin by spectral interaction analysis; conditions: synthetic N-terminal truncated CYP2A6, probe coumarin, […]
Cytochrome P450 2A6 [6] = biological target: T1, Cytochrome P450 2A6; assay: Inhibition of human CYP2A6 expressed in insect cell membranes assessed as reduction in enzyme-mediated coumarin 7-hydroxylation at 400 uM in presence of glucose-6-phosphate, glucose-6-phosphate dehydrogenase and NADPH-generating system by fluorometry
Cytochrome P450 2A6 [7] = biological target: T1, Cytochrome P450 2A6; assay: as §1; conditions: 100 µM
Cytochrome P450 2A6 [8] = biological target: T1, Cytochrome P450 2A6; assay: as §2; conditions: 100 µM
[9] = biological target: Acetylcholine-binding protein (Lymnaea stagnalis) (UniProt P58154); assay: Displacement of [125I]bungarotoxin from Lymnaea stagnalis nicotinic acetylcholine receptor assessed as residual radioligand binding relative to control
Rattus norvegicus [10] = assay: Reduction of nicotine self-administration in nicotine-addicted Wistar rat at 15 mg/kg dosed on day 50 following self-administration of nicotine across 23 hrs period each day for 49 days and measured on day 51 and 52 relative to control; assay type: ADME, organism-based; conditions: in vivo
Rattus norvegicus [11] = assay: Reduction of nicotine self-administration in nicotine-addicted Wistar rat at 15 mg/kg dosed on day 50 following self-administration of nicotine across 23 hrs period each day for 49 days relative to control; assay type: ADME, organism-based; set-up: scale not given: the % may be the effect or the level left; conditions: in vivo

Acetylcholine-binding protein (Lymnaea stagnalis), sequence (P58154 whole entry, the tested form may be a part): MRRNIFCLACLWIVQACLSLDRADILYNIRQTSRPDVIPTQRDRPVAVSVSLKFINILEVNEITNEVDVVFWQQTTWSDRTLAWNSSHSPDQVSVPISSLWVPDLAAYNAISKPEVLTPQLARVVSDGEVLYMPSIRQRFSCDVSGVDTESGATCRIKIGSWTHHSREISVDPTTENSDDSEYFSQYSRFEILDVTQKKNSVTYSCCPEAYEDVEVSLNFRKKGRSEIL

SMILES: Cl.Cl.NCc1ccc(-c2cccnc2)o1
- Activity (Rattus norvegicus [1]): Toxic

SMILES: c1cncc(-c2cccs2)c1
- Activity [2]: Active

SMILES: Cc1csc(-c2cccnc2)n1
- Activity (Cytochrome P450 2A6 [3]): Active

SMILES: Cc1cn(-c2cccnc2)cn1
- Activity [2]: Active

SMILES: O=Cc1ccc(-c2cccnc2)o1
- Activity (Cytochrome P450 2A6 [3]): Not Active
- inhibition at 100 µM (CYP2A6 [4]): 100%
- inhibition at 100 µM (CYP2A6 [5]): 100%

SMILES: c1cncc(-c2cccnc2)c1
- Activity [2]: Active

SMILES: c1ccc(-c2ccsc2)cc1
- Activity (Cytochrome P450 2A6 [3]): Active

SMILES: c1cncc(-n2cnnn2)c1
- inhibition (INH) (Cytochrome P450 2A6 [6]): Active

SMILES: CC(=O)SCc1ccc(-c2cccnc2)o1
- Activity (Cytochrome P450 2A6 [3]): Not Active
- Activity (Cytochrome P450 2A6 [7]): Not Active
- Activity (Cytochrome P450 2A6 [8]): Not Active

SMILES: CN(C)CC#Cc1cccnc1
- Activity (Cytochrome P450 2A6 [3]): Not Active

SMILES: Cc1ccsc1-c1ccc(F)nc1
- Activity (Cytochrome P450 2A6 [3]): Active

SMILES: NC[C@@H]1CC[C@@H](c2cccnc2)O1 (relative stereo)
- Activity [9]: 25%
- Activity [2]: Active

SMILES: Cc1cscc1-c1cccnc1
- Activity [2]: Active

SMILES: CCC1CCC(c2cccnc2)O1 (configuration not stated)
- Activity [2]: inactive

SMILES: N[C@@H]1C[C@H]1c1ccccc1.N[C@H]1C[C@@H]1c1ccccc1
- Activity [2]: Active

SMILES: OCC1CCC(c2cccnc2)O1 (configuration not stated)
- Activity [2]: inactive

SMILES: Cl.Cl.c1cncc(-c2c[nH]cn2)c1
- Activity (Rattus norvegicus [10]): Toxic
- Activity (Rattus norvegicus [11]): 40%
- Activity [2]: inactive

SMILES: BrCC1CCC(c2cccnc2)O1 (configuration not stated)
- Activity [2]: Active

SMILES: Cc1cscc1-c1ccccc1
- Activity (Cytochrome P450 2A6 [3]): Active

SMILES: NCC1CCC(c2cccnc2)O1 (mixture of isomers)
- Activity [9]: 30%
- Activity [2]: Active

SMILES: SCc1ccc(-c2cccnc2)o1
- Activity (Cytochrome P450 2A6 [3]): Not Active
- inhibition at 100 µM (CYP2A6 [4]): 100%
- inhibition at 100 µM (CYP2A6 [5]): 100%

SMILES: Cc1ccsc1-c1cccnc1
- Activity (Cytochrome P450 2A6 [3]): Active
